Measured values reported in patent US12162858B2, “Quinoline derivatives as inhibitors of AXL/MER RTK and CSF1R” (QURIENT CO., LTD., priority 2018, dated 2024).
Like-named read-outs stand apart in the source and are kept apart here.

What was measured:
CSF1R = CSF1R (Homo sapiens, UniProt P07333); experiment: KINOMEscan competition binding assay for CSF1R; set-up: DNA tag for qPCR (not a peptide); host or cells: E. coli/T7 phage or HEK-293; conditions: for Kd: read-out: CSF1R kinase binding activity (Kd)
Chain of CSF1R (P07333 20-972): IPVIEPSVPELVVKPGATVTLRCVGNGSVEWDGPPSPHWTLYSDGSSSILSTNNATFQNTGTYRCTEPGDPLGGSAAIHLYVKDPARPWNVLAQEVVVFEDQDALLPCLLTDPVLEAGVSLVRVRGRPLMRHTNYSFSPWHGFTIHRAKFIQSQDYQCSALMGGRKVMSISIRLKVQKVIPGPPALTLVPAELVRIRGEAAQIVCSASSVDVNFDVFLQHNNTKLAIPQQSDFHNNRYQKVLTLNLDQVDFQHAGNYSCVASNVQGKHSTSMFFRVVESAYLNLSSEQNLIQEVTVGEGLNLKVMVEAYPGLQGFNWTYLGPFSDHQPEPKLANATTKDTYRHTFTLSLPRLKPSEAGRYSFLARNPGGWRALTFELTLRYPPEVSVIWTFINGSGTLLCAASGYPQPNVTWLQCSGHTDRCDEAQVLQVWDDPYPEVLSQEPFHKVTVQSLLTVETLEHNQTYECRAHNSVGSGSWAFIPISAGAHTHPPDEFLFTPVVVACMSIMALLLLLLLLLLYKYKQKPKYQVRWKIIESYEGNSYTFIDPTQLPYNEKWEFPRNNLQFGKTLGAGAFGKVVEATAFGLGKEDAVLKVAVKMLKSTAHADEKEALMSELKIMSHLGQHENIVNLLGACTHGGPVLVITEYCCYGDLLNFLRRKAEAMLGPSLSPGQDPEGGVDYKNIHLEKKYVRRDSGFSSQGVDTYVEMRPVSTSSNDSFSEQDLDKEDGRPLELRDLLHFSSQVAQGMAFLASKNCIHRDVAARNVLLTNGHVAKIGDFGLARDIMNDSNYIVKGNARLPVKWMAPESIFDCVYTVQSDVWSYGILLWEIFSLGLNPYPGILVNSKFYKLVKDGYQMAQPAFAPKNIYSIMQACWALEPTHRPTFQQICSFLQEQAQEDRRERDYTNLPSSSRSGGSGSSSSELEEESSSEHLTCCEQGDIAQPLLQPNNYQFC
How it was run: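 Values are either % inhibition at 0.1 uM, relative to DMSO (100% Ctrl) and a control compound (0% Ctrl), or Kd from an 11-point 3-fold series fitted with Hill slope −1. DNA-tagged kinase binds immobilized ligand beads with compound for 1 h at room temperature, and eluted kinase is measured by qPCR.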

Mer = molecular target: T1, Mer (Homo sapiens, UniProt Q12866); experiment: LanthaScreen Eu kinase binding assay for Mer; conditions: read-out: Mer kinase binding activity (Kd)
T1 construct: purchased Life Technologies
T1 sequence (Q12866 21-999): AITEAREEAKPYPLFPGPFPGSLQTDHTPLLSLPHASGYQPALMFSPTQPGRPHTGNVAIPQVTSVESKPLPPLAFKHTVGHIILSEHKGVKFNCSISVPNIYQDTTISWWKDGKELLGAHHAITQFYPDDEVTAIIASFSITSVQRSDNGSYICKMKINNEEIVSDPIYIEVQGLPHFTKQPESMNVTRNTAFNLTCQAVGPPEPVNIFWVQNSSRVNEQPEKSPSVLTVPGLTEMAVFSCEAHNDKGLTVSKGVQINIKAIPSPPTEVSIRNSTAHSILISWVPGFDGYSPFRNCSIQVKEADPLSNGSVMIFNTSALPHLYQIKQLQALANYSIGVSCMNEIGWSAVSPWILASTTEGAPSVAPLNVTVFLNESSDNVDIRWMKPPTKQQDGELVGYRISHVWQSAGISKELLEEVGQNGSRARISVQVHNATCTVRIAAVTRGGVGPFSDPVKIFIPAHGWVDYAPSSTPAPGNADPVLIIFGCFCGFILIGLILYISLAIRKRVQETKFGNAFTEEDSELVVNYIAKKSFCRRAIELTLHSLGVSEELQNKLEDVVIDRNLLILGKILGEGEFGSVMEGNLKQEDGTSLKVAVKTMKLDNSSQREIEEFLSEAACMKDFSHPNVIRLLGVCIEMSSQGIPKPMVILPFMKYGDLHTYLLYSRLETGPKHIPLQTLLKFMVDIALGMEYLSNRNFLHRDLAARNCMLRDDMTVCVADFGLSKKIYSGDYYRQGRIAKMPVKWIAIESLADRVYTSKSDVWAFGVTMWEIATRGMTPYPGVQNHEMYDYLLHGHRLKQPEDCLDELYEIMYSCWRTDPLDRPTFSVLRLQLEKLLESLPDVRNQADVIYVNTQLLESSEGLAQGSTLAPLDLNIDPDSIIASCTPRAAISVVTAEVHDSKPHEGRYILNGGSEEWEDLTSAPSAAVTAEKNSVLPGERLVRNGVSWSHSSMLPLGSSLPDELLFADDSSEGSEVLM
How it was run: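 Kd values come from control-normalized FRET loss, referenced to DMSO vehicle wells, after 1 h at room temperature. Each compound was serially diluted over eight steps in DMSO and competed against Tracer 236 (Alexa Fluor 647) for the kinase, which was tagged by a Eu anti-GST antibody.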

[1] = read-out: CSF1R kinase binding activity, Percent (%) inhibition
[2] = read-out: CSF1R kinase binding activity, Range

Row | Compound | inhibition at 0.1 µM (CSF1R; [1]) | inhibition at 0.1 µM (CSF1R; [2]) | Kd (CSF1R) | Kd (Mer)
1 | CCn1nc(C(=O)Nc2ccc(Oc3ccnc4cc(OC)c(OC)cc34)cn2)c(OCC(F)(F)F)c1C [Compound 1] | 96% | ≥ 80% | < 100 nM | < 100 nM
2 | COc1cc2nccc(Oc3ccc(NC(=O)c4nn(C(C)C)c(C)c4OCC(F)(F)F)nc3)c2cc1OC [Compound 2] | 89% | ≥ 80% | 100 to 500 nM | < 100 nM
3 | COc1cc2nccc(Oc3ccc(NC(=O)c4nn(C5CC5)c(C(C)=O)c4OCC(F)(F)F)nc3)c2cc1OC [Compound 3] | 71% | 50 to 80% | 100 to 500 nM | < 100 nM
4 | COc1cc2nccc(Oc3ccc(NC(=O)c4nn(C5CCOC5)cc4OCC(F)(F)F)nc3)c2cc1OC (stereo not drawn) [Compound 13] | 98% | ≥ 80% | < 100 nM | < 100 nM
5 | CCCn1cc(OCCF)c(C(=O)Nc2ccc(Oc3ccnc4cc(OC)c(OC)cc34)cn2)n1 [Compound 14] | 98% | ≥ 80% | < 100 nM | < 100 nM
6 | CCCn1cc(OCCC(O)CO)c(C(=O)Nc2ccc(Oc3ccnc4cc(OC)c(OC)cc34)cn2)n1 (stereo not drawn) [Compound 15] | 87% | ≥ 80% | – | < 100 nM
7 | COc1cc2nccc(Oc3ccc(NC(=O)c4nn(CC(C)O)cc4OCC(F)(F)F)nc3)c2cc1OC (stereo not drawn) [Compound 17] | 97% | ≥ 80% | – | < 100 nM
8 | COc1cc2nccc(Oc3ccc(NC(=O)c4nn(CCCO)cc4OCC(F)(F)F)nc3)c2cc1OC [Compound 18] | 97% | ≥ 80% | – | < 100 nM
9 | COc1cc2nccc(Oc3ccc(NC(=O)c4nn(CC(C)=O)cc4OCC(F)(F)F)nc3)c2cc1OC [Compound 19] | 97% | ≥ 80% | – | < 100 nM
10 | CCC(=O)n1cc(OCC(F)(F)F)c(C(=O)Nc2ccc(Oc3ccnc4cc(OC)c(OC)cc34)cn2)n1 [Compound 20] | 99% | ≥ 80% | – | < 100 nM
11 | COc1cc2nccc(Oc3ccc(NC(=O)c4nn(CC(C)C)cc4OCC(F)(F)F)nc3)c2cc1OC [Compound 21] | 95% | ≥ 80% | – | < 100 nM
12 | COc1cc2nccc(Oc3ccc(NC(=O)c4nn(C(C)(C)C)cc4OCC(F)(F)F)nc3)c2cc1OC [Compound 22] | 93% | ≥ 80% | – | < 100 nM
13 | CCCn1cc(NCC(F)(F)F)c(C(=O)Nc2ccc(Oc3ccnc4cc(OC)c(OC)cc34)cn2)n1 [Compound 23] | 94% | ≥ 80% | – | < 100 nM
14 | COc1cc2nccc(Oc3ccc(NC(=O)c4nn(C5CCC5)cc4OCC(F)(F)F)nc3)c2cc1OC [Compound 24] | 96% | ≥ 80% | – | < 100 nM
15 | CCCn1cc(OCC(F)(F)F)c(C(=O)Nc2ccc(Oc3ccnc4cc(OC)c(OC)cc34)c(F)c2)n1 [Compound 25] | 87% | ≥ 80% | – | < 100 nM
16 | CCCn1cc(OCC(F)(F)F)c(C(=O)Nc2ccc(Oc3ccnc4cc(OC)c(OC)cc34)c(C)c2)n1 [Compound 26] | 94% | ≥ 80% | – | < 100 nM
17 | CCCn1cc(OCC(F)(F)F)c(C(=O)Nc2ccc(Oc3ccnc4cc(OC)c(OC)cc34)cc2C)n1 [Compound 27] | 58% | 50 to 80% | – | < 100 nM
18 | CCCn1cc(OCC(F)(F)F)c(C(=O)Nc2ccc(Oc3ccnc4cc(OC)c(OC)cc34)cc2F)n1 [Compound 28] | 90% | ≥ 80% | – | < 100 nM
19 | COc1cc2nccc(Oc3ccc(NC(=O)c4nn(C[C@@H](C)O)cc4OCC(F)(F)F)nc3)c2cc1OC [Compound 29] | 99% | ≥ 80% | – | < 100 nM
20 | COc1cc2nccc(Oc3ccc(NC(=O)c4nn(C[C@H](C)O)cc4OCC(F)(F)F)nc3)c2cc1OC [Compound 30] | 99% | ≥ 80% | – | < 100 nM

Row | Compound | inhibition at 0.1 µM (CSF1R; [1]) | inhibition at 0.1 µM (CSF1R; [2]) | Kd (CSF1R) | Kd (Mer)
21 | CCCn1cc(OCCC(F)(F)F)c(C(=O)Nc2ccc(Oc3ccnc4cc(OC)c(OC)cc34)cn2)n1 [Compound 31] | 95% | ≥ 80% | – | < 100 nM
22 | CCCn1cc(OCC(F)(F)F)c(C(=O)Nc2ccc(Oc3ccnc4cc(OC)c(OC)cc34)nn2)n1 [Compound 32] | 95% | ≥ 80% | – | < 100 nM
23 | COc1cc2nccc(Oc3ccc(NC(=O)c4nn(C)cc4OCC(F)(F)F)nc3)c2cc1OC [Compound 33] | 98% | ≥ 80% | – | < 100 nM
24 | CCCn1cc(N(C)CC2CCOCC2)c(C(=O)Nc2ccc(Oc3ccnc4cc(OC)c(OC)cc34)cn2)n1 [Compound 34] | – | – | – | 100 to 500 nM
25 | CCCn1cc(OC(C)C)c(C(=O)Nc2ccc(Oc3ccnc4cc(OC)c(OC(F)(F)F)cc34)c(F)c2)n1 [Compound 35] | 6% | < 50% | – | ≥ 500 nM
26 | CCCCn1cc(OCC(F)(F)F)c(C(=O)Nc2ccc(Oc3ccnc4cc(OC)c(OC)cc34)cn2)n1 [Compound 36] | 95% | ≥ 80% | – | < 100 nM
27 | COc1cc2nccc(Oc3ccc(NC(=O)c4nn(C)cc4OCC(F)(F)F)cc3C)c2cc1OC [Compound 37] | 97% | ≥ 80% | – | < 100 nM
28 | CCCn1cc(OCC(F)(F)F)c(C(=O)Nc2ccc(Oc3ccnc4cc(OC)c(OC)cc34)cc2)n1 [Compound 38] | 87% | ≥ 80% | – | < 100 nM
29 | COc1cc2nccc(Oc3ccc(NC(=O)c4nn(CCC#N)cc4OCC(F)(F)F)nc3)c2cc1OC [Compound 39] | 97% | ≥ 80% | – | < 100 nM
30 | COc1cc2nccc(Oc3ccc(NC(=O)c4nn(C5CCCC5)cc4OCC(F)(F)F)nc3)c2cc1OC [Compound 40] | 94% | ≥ 80% | – | < 100 nM
31 | COc1cc2nccc(Oc3ccc(NC(=O)c4nn(CC5CC5)cc4OCC(F)(F)F)nc3)c2cc1OC [Compound 41] | 97% | ≥ 80% | – | < 100 nM
32 | COc1cc2nccc(Oc3ccc(NC(=O)c4nn(CC5CCC5)cc4OCC(F)(F)F)nc3)c2cc1OC [Compound 42] | 95% | ≥ 80% | – | < 100 nM
33 | COc1cc2nccc(Oc3ccc(NC(=O)c4nn(CC5CCCCC5)cc4OCC(F)(F)F)nc3)c2cc1OC [Compound 43] | 94% | ≥ 80% | – | < 100 nM
34 | COc1cc2nccc(Oc3ccc(NC(=O)c4nn(CC5CCOC5)cc4OCC(F)(F)F)nc3)c2cc1OC (stereo not drawn) [Compound 44] | 82% | ≥ 80% | – | < 100 nM
35 | COc1cc2nccc(Oc3ccc(NC(=O)c4nn(C)cc4OCC(F)(F)F)c(F)c3)c2cc1OC [Compound 45] | 93% | ≥ 80% | – | < 100 nM
36 | COc1cc2nccc(Oc3ccc(NC(=O)c4nn(CCO)cc4OCC(F)(F)F)c(F)c3)c2cc1OC [Compound 46] | 96% | ≥ 80% | – | < 100 nM
37 | COc1cc2nccc(Oc3ccc(NC(=O)c4nn(C5CCCC5)cc4OCC(F)(F)F)c(F)c3)c2cc1OC [Compound 47] | 91% | ≥ 80% | – | < 100 nM
38 | CCCn1cc(OCCN(C)C)c(C(=O)Nc2ccc(Oc3ccnc4cc(OC)c(OC)cc34)cn2)n1 [Compound 177] | – | – | – | 100 to 500 nM
39 | COc1cc2nccc(Oc3ccc(NC(=O)c4cc(C5CC5)cnc4OCC(F)(F)F)nc3)c2cc1OC [Compound 178] | – | – | – | < 100 nM
40 | COc1cc2nccc(Oc3ccc(NC(=O)c4sc(C5CC5)cc4OCC(F)(F)F)nc3)c2cc1OC [Compound 179] | – | – | – | 100 to 500 nM
